Each structure is given as a SMILES string.

One experiment addresses T1, Substance-K receptor (Cavia porcellus, UniProt Q64077).
T1 sequence (Q64077 whole entry): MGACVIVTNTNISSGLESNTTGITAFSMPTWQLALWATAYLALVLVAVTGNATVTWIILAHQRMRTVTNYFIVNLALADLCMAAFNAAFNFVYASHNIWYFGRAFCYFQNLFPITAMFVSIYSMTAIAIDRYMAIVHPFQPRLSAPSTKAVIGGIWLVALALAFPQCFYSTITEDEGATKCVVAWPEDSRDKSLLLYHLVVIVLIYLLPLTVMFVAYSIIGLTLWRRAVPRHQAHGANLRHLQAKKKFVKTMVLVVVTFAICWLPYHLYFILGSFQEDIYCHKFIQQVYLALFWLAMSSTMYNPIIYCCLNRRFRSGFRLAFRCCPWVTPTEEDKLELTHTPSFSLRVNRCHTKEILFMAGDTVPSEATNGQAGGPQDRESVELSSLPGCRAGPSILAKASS
The experiment can be described thus: Inhibitory activity against Neurokinin 2 (NK2) receptor from guinea pig ileum. Type of experiment: tissue-based.

The target of the next experiment is Substance-P receptor (Cavia porcellus, UniProt P30547). The experiment can be described thus: Inhibitory activity against Neurokinin 1 (NK1) receptor from guinea pig lung.
Chain of Substance-P receptor (P30547 whole entry): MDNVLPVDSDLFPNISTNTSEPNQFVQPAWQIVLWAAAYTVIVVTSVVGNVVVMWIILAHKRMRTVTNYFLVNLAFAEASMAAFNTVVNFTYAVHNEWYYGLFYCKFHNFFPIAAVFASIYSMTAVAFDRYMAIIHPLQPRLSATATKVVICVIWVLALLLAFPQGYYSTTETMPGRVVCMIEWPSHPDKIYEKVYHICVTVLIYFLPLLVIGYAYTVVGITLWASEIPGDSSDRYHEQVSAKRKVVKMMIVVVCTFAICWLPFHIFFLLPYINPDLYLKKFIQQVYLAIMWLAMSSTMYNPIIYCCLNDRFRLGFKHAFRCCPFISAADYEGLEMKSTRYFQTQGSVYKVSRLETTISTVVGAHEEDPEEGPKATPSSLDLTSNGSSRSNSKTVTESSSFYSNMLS
For experiment [1], the system named is Cavia porcellus. The experiment can be described thus: In vivo inhibitory activity against SP-induced vascular hyperpermeability in guinea pig after iv administration. Conditions: read-out: ID50 (the source's name). The experiment is classed as functional.
Experiment [2] deals with Cavia porcellus. The experiment can be described thus: In vivo inhibitory activity against [Nle10] ]-NKA[4-10]-induced bronchoconstriction in guinea pig after iv administration. Type of experiment: functional. The conditions noted are these: read-out: ID50 (the source's name).

Consider `COc1cc(C(=O)N2CO[C@](CCN3CCC4(CC3)C[S+]([O-])c3ccccc34)(c3ccc(Cl)c(Cl)c3)C2)cc(OC)c1OC` (stereo partly drawn), for which the IC50 was 11.1 nM against Substance-K receptor and 8.94 nM against Substance-P receptor.
On to `COc1cc(C(=O)N2CO[C@](CCN3CCC(C(N)=O)(c4ccccc4)CC3)(c3ccc(F)c(F)c3)C2)cc(OC)c1OC`, for which the IC50 against Substance-K receptor is 328 nM; against Substance-P receptor, 16.4 nM.
On the same counts, the results for `COc1cc(C(=O)N2CO[C@](CCN3CCC4(CC3)c3ccccc3CS4(=O)=O)(c3ccc(Cl)c(Cl)c3)C2)cc(OC)c1OC` are 28.1 nM and 34 nM.
In the case of `COc1cc(C(=O)N2CO[C@](CCN3CCC(C(=O)N(C)C)(c4ccccc4)CC3)(c3ccc(Cl)cc3)C2)cc(OC)c1OC`, the values for the IC50 against Substance-K receptor and on Substance-P receptor were 7.39 nM and 78.6 nM, respectively.
Turning to `COc1cc(C(=O)N2CO[C@](CCN3CCC4(CC3)C(=O)N(C)c3ccccc34)(c3ccc(Cl)c(Cl)c3)C2)cc(OC)c1OC`, the IC50 at Substance-K receptor is 51.9 nM; against Substance-P receptor, 14.1 nM.
Take `NC(=O)C1(c2ccccc2)CCN(CC[C@@]2(c3ccc(Cl)c(Cl)c3)CN(C(=O)c3cc(C(F)(F)F)cc(C(F)(F)F)c3)CO2)CC1`: the IC50 at Substance-K receptor is 160 nM; on Substance-P receptor, 145 nM.
For `COc1cc(C(=O)N2CO[C@](CCN3CCC(C(=O)N4CCOCC4)(c4ccccc4)CC3)(c3ccc(Cl)c(Cl)c3)C2)cc(OC)c1OC`, the IC50 against Substance-K receptor was 73 nM; at Substance-P receptor it was 44.9 nM.
As to `COc1cc(C(=O)N2CO[C@](CCN3CCC(C(=O)N(C)C)(c4ccccc4)CC3)(c3ccc(Cl)c(Cl)c3)C2)cc(OC)c1OC`, the values for the IC50 at Substance-K receptor and at Substance-P receptor were 8.2 nM and 25.3 nM, respectively.
Regarding `COc1cc(C(=O)N2CO[C@](CCN3CCC(C(N)=O)(c4ccccc4)CC3)(c3ccc(Cl)cc3)C2)cc(OC)c1OC`, the IC50 against Substance-K receptor is 329 nM; at Substance-P receptor, 44.4 nM.
In the case of `COc1ccc(C(=O)N2CO[C@](CCN3CCC(C(N)=O)(c4ccccc4)CC3)(c3ccc(Cl)c(Cl)c3)C2)cc1`, the IC50 was 292 nM against Substance-K receptor and 112 nM against Substance-P receptor.
For the compound `COc1cc(C(=O)N2CO[C@](CCN3CCC(C(N)=O)(c4ccccc4)CC3)(c3ccc(F)cc3)C2)cc(OC)c1OC`, the IC50 is 744 nM at Substance-K receptor and 45.6 nM against Substance-P receptor.
Consider `COc1cc(C(=O)N2CO[C@](CCN3CCC4(CC3)c3ccccc3C[S+]4[O-])(c3ccc(F)cc3)C2)cc(OC)c1OC` (stereo partly drawn), for which the half-inhibitory concentration (IC50) is 34.5 nM on Substance-K receptor and 24.6 nM against Substance-P receptor.
As for `COc1cc(C(=O)N2CO[C@](CCN3CCC4(CC3)NC(=O)Cc3ccccc34)(c3ccc(F)c(F)c3)C2)cc(OC)c1OC`, the IC50 against Substance-K receptor was 10.9 nM; against Substance-P receptor, 45 nM.
In the case of `COc1cc(C(=O)N2CO[C@](CCN3CCC(C(=O)N4CCCC4)(c4ccccc4)CC3)(c3ccc(Cl)c(Cl)c3)C2)cc(OC)c1OC`, the IC50 was 91.9 nM against Substance-K receptor and 11.2 nM against Substance-P receptor.
Turning to `COc1cc(C(=O)N2CO[C@](CCN3CCC(C(=O)N(C)C)(c4ccccc4)CC3)(c3ccc(F)cc3)C2)cc(OC)c1OC`, the results for the IC50 on Substance-K receptor and at Substance-P receptor were 15 nM and 27.4 nM, respectively.
On the same counts, the results for `COc1cc(C(=O)N2CO[C@](CCN3CCN(c4ccc(C(C)=O)cc4)CC3)(c3ccc(Cl)c(Cl)c3)C2)cc(OC)c1OC` are 115 nM and 28 nM.
Regarding `COc1cc(C(=O)N2CO[C@](CCN3CCC4(CC3)c3ccccc3C[S+]4[O-])(c3ccc(Cl)cc3)C2)cc(OC)c1OC` (stereo partly drawn), the values for the IC50 at Substance-K receptor and at Substance-P receptor were 11 nM and 19.2 nM, respectively.
As for `COc1cc(C(=O)N2CO[C@](CCN3CCC(C(N)=O)(c4ccccc4)CC3)(c3ccc(Cl)c(Cl)c3)C2)cc(OC)c1OC`, the IC50 is 142 nM against Substance-K receptor and 9.65 nM at Substance-P receptor.
On the same counts, the results for `COc1cc(C(=O)N2CO[C@](CCN3CCC4(CC3)NC(=O)Cc3ccccc34)(c3ccc(Cl)cc3)C2)cc(OC)c1OC` are 5.16 nM and 82.2 nM.
`COc1cc(C(=O)N2CO[C@](CCN3CCC4(CC3)c3ccccc3C[S+]4[O-])(c3ccc(F)c(F)c3)C2)cc(OC)c1OC` (stereo partly drawn): the IC50 was 30.3 nM at Substance-K receptor and 25.5 nM on Substance-P receptor.
For `COc1cc(C(=O)N2CO[C@](CCN3CCC4(CC3)NC(=O)Cc3ccccc34)(c3ccc(F)cc3)C2)cc(OC)c1OC`, the results for the IC50 at Substance-K receptor and against Substance-P receptor were 10.3 nM and 48 nM, respectively.
Turning to `COc1cc(C(=O)N2CO[C@](CCN3CCC4(CC3)c3ccccc3C[S+]4[O-])(c3ccc(Cl)c(Cl)c3)C2)cc(OC)c1OC` (stereo partly drawn), the ED50 amounted to 0.025 mg/kg with Cavia porcellus [1] and 0.074 mg/kg with Cavia porcellus [2]. The values for the IC50 on Substance-K receptor and at Substance-P receptor were 11.4 nM and 10.2 nM, respectively.
As for `COc1cc(C(=O)N2CO[C@](CCN3CCC(C(=O)N(C)C)(c4ccccc4)CC3)(c3ccc(F)c(F)c3)C2)cc(OC)c1OC`, the IC50 was 20.4 nM against Substance-K receptor and 42.3 nM at Substance-P receptor.

The values are drawn from ChEMBL document CHEMBL1132079, “Combined NK1 and NK2 tachykinin receptor antagonists: synthesis and structure-activity relationships of novel oxazolidine analogues” (Bioorg Med Chem Lett, 1999).
